Data on eight molecules can be found in paper PMC12321279, “Novel 4,5‐Dihydrothiazole‐Phenylpiperazine Derivatives: Synthesis, Docking Studies and Pharmacological Evaluation as Serotonergic Agents” (Chemmedchem, 2025).

Experiment [1] deals with T1, 5‐HT1A receptor (Rattus norvegicus, UniProt P19327).
T1 construct: 80 μg of hippocampal membrane suspension (the 5‐HT1A assay); from tissue; host or cells: rat (Sprague-Dawley) hippocampus membranes
T1 sequence (P19327 1-422): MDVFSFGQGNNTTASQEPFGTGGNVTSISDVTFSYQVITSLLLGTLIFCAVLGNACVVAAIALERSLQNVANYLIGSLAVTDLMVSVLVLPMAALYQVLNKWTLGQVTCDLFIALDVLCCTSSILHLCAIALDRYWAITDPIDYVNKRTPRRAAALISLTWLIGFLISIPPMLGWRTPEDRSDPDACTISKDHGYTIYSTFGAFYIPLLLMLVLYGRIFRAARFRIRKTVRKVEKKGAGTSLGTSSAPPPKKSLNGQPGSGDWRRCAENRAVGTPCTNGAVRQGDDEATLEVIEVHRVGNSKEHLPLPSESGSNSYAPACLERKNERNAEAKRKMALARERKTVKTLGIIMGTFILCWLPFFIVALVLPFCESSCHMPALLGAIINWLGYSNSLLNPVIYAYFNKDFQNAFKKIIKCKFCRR
The experiment in a line: 5‐HT1A competition binding assay ([3H]8‐OH‐DPAT, hippocampal membranes). The settings on record: 1 nM [3H]8‐OH‐DPAT. Here is the method: (§1) Sprague‐Dawley rats were sacrificed by isoflurane overdose. Brains were rapidly removed and placed on ice. Hippocampi (for the 5‐HT1A assay) and frontal cortices (for the 5‐HT2A and 5‐HT2C assays) were dissected on a Petri dish. The tissue from 10 rats was homogenized in 30 vol. homogenization buffer (50 mM Tris–HCl, […], 1 mM EDTA, 1 mM dithiothreitol) with a handheld Teflon‐glass homogenizer. The homogenate was centrifuged at 48,000 × g at 4 °C for 15 min. The pellet was suspended and homogenized in the homogenization buffer and incubated for 10 min. at 36 °C. The centrifugation and suspension steps were repeated twice. The final pellet was homogenized in 5 vol. 50 mM Tris–HCl, pH = 7.4 buffer and stored at −80 °C for no longer than 6 months. […] For the 5‐HT2C assay, compounds were incubated in duplicate with 5 nM [^3H]mesulergine (specific activity: 80.2 Ci mmol^−1, Revvity, MA, USA) for 60 min. at 36 °C in a 50 mM Tris‐HCl (pH 7.4) buffer, supplemented with 5 mM MgCl2, 140 mM NaCl, 1 mM DTT, 1 mM CaCl2, 10 μM pargyline and 160μg of the frontal cortex membrane suspension. Non‐specific binding was determined with 10μM serotonin. The final DMSO concentration in the assay was 5%. After incubation, the reaction mixture was deposited onto Unifilter GF/C plates (Revvity, MA, USA) presoaked in 0.4% PEI (or 0.4% PEI and 0.5% Triton X‐100 for the 5‐HT2C assay) for 1 h with the FilterMate‐96 Harvester (Revvity, MA, USA). Then, each well was washed with 2 mL of 50 mM Tris–HCl (pH 7.4) buffer to separate bound ligands from free and the plates were left to dry overnight. Then, 35μl of Microscint‐20 scintillation fluid (Revvity, MA, USA) was added to each filter well and left to equilibrate for 2h. Filter‐bound radioactivity was counted in a MicroBeta2 LumiJet scintillation counter (Revvity, MA, USA). Binding curves were fitted with one site non‐linear regression. Binding affinity (pKi and Ki) for each compound was calculated from the […] values with the Cheng‐Prusoff equation from two separate experiments.

For a further experiment, the target named is T2, 5‐HT2C receptor (Rattus norvegicus, UniProt P08909).
T2 construct: 10 μM pargyline and 160μg of the frontal cortex membrane suspension; from tissue; host or cells: rat (Sprague-Dawley) frontal cortex membranes
T2 sequence (P08909 33-460): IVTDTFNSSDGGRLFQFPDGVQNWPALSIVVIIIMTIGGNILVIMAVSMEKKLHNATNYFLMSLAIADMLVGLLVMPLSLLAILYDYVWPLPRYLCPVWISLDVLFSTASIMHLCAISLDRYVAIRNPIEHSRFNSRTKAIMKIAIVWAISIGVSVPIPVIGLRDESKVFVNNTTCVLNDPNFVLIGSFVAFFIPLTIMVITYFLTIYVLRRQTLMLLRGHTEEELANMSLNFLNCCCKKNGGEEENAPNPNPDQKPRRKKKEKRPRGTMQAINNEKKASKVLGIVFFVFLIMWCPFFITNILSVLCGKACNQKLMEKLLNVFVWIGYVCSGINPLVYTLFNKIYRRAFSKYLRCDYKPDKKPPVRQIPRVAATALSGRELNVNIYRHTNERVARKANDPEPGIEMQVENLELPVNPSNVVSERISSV
The experiment in a line: 5‐HT2C competition binding assay ([3H]mesulergine, frontal cortex membranes). The following applies: 5 nM [3H]mesulergine. Here is the method: as §1

A further experiment concerns the target 5‐HT2A receptor (Rattus norvegicus, UniProt P14842). The experiment in a line: 5‐HT2A competition binding assay ([3H]ketanserin, frontal cortex membranes). The settings on record: 1 nM [3H]ketanserin. The arrangement: from tissue; host or cells: rat (Sprague-Dawley) frontal cortex membranes.
For experiment [2], the target named is T1, 5‐HT1A receptor. The experiment in a line: 5‐HT1A receptor activation in the [35S]GTP‐γ‐S assay (hippocampal membranes). It is filed as biochemical. The settings on record: [35S]GTPγS; for Emax: read-out: Emax (%) ± SEM, 5‐HT1A receptor G‐protein stimulation; for agonist activity for the 5‐HT1A receptor (classification in words): efficacy compared with 8‐OH‐DPAT. The protocol: Seven compound concentrations equally spaced on a log scale (10–4 M to 10–10 M) were incubated in duplicate with hippocampal membrane preparations (5μg per well) in assay buffer (50 mM Tris‐HCl, pH = 7.4, 1 mM EGTA, 3 mM MgCl2, 100 mM NaCl, and 30 μM GDP) and 0.08 nM [^35S]GTP‐γ‐S (specific activity: 1250 Ci mmole^−1, Revvity). Nonspecific binding was determined with 10μM of unlabeled GTP‐γ‐S. The final DMSO concentration in the assay was 5%. The reaction mixture was incubated for 90 min. at 30 °C on an orbital shaker set at 250 rpm. Next, the reaction mixture was deposited under vacuum with the FilterMate Harvester (Revvity, USA) onto Unifilter GF/C Plates (Revvity, MA, USA) presoaked with wash buffer (50 mM Tris‐HCl, pH = 7.4). The wells were then rapidly washed with 2 mL of wash buffer. Filter plates were dried overnight at room temperature. Once completely dry, 35 μl of MicroScint PS (Revvity, MA, USA) scintillation fluid was added to each well. Radioactivity was counted in a MicroBeta2 LumiJet scintillation counter (Revvity, MA, USA). Data were analyzed with GraphPad Prism 5.0 software (GraphPad Software, San Diego California USA, www.graphpad.com). The curves were fitted with three‐parameter non‐linear regression model.
(In general: Binding of GTPγS marks nucleotide exchange on a G protein.)

[3] abbreviates: read-out: 5‐HT1A pKi (converted).
The mark [4] stands for this setting: 95% CI in brackets, read-out: 5‐HT2C Ki (95% CI).
Where [5] appears, read: 95% CI in brackets, read-out: 5‐HT2A Ki (95% CI).
Setting [6] is: rat hippocampal membranes, 95% CI in brackets, read-out: EC50 (95% CI, μM), 5‐HT1A receptor G‐protein stimulation.
Where [7] appears, read: rat hippocampal membranes, read-out: pEC50, 5‐HT1A receptor G‐protein stimulation (converted).
Where [8] appears, read: 95% CI in brackets, read-out: 5‐HT1A Ki (95% CI).
Setting [9] is: read-out: 5‐HT2C pKi (converted).
Setting [10] is: read-out: 5‐HT2A pKi (converted).

Each structure is given as a SMILES string. Where two headings read alike, the source gives them in different places.

Sequence of 5‐HT2A receptor (P14842 whole entry): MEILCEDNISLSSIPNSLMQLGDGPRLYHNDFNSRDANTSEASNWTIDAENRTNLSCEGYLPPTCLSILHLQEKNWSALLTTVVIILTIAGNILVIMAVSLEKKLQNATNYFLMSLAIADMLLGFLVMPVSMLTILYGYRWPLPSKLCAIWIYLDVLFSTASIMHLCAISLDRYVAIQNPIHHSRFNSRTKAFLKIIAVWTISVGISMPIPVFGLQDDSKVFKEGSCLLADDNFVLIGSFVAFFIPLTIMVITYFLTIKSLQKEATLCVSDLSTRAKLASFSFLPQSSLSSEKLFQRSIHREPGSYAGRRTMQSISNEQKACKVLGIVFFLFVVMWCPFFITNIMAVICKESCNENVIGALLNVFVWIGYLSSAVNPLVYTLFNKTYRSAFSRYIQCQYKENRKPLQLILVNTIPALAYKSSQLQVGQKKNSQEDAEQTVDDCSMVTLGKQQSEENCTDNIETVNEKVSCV

Turning to `O=C(NCCCN1CCN(c2ccc(C3=NCCS3)cc2)CC1)C1CC2C=CC1C2` (stereo not drawn) [FG‐18, Endo‐ N‐(3‐(4‐(4‐(4,5‐dihydrothiazol‐2‐yl)phenyl)piperazin‐1‐yl)propyl) bicyclo[2.2.1]hept‐5‐ene‐2‐carboxamide], the Ki is 20000 nM on 5‐HT1A receptor [1] (setting [3]), 17 nM at 5‐HT2C receptor (setting [4]) and 2730 nM on 5‐HT2A receptor (setting [5]). The “Emax (%) ± SEM, 5‐HT1A receptor G‐protein stimulation” value on 5‐HT1A receptor [2] (rat hippocampal membranes) amounted to 144 ± 8.2%. For the same molecule, the EC50 on 5‐HT1A receptor [2] (setting [6]) was 8.8 µM; on 5‐HT1A receptor [2] (setting [7]), 8.91 µM.

In general, Emax refers to the greatest response seen or fitted, relative to the assay's reference. With `O=C1C2C3C=CC(C3)C2C(=O)N1OCCCN1CCN(c2cccc(C3=NCCS3)c2)CC1` (stereo not drawn) [FG‐8, 2‐(3‐(4‐(3‐(4,5‐dihydrothiazol‐2‐yl) phenyl) piperazin‐1‐yl) propoxy)‐3a,4,7,7a‐tetrahydro‐1H‐4,7‐methanoisoindole‐1,3(2H)‐dione], the Ki at 5‐HT1A receptor [1] (setting [8]) was 710 nM; on 5‐HT1A receptor [1] (setting [3]), 724 nM; at 5‐HT2C receptor (setting [4]) it was 46 nM; at 5‐HT2C receptor (setting [9]), 46.8 nM; at 5‐HT2A receptor (setting [5]), 1100 nM; on 5‐HT2A receptor (setting [10]), 1150 nM. Further, at 5‐HT1A receptor [2] (setting [6]), the EC50 was 7.9 µM. Also, on 5‐HT1A receptor [2] (rat hippocampal membranes), the Emax is 184 ± 6.6%. The “agonist activity for the 5‐HT1A receptor (classification in words)” value (from here on “agonist activity for the 5‐HT1A receptor”) on 5‐HT1A receptor [2] is “full agonists”.

In the case of `O=C(NCCCN1CCN(c2cccc(C3=NCCS3)c2)CC1)c1ccncc1` [FG‐5, N‐(3‐(4‐(3‐(4,5‐dihydrothiazol‐2‐yl) phenyl) piperazin‐1‐yl) propyl) isonicotinamide], the Ki on 5‐HT1A receptor [1] (setting [8]) turned out to be 1100 nM; on 5‐HT2C receptor (setting [4]) it was 12500 nM; at 5‐HT2A receptor (setting [5]) it was 4430 nM. Further, the EC50 on 5‐HT1A receptor [2] (setting [6]) turned out to be 18.2 µM. The Emax on 5‐HT1A receptor [2] (rat hippocampal membranes) was 185 ± 17.6%.

Consider `O=C1C2C3C=CC(C3)C2C(=O)N1OCCCN1CCN(c2ccccc2C2=NCCS2)CC1` (stereo not drawn) [FG‐7, 2‐(3‐(4‐(2‐(4,5‐dihydrothiazol‐2‐yl) phenyl) piperazin‐1‐yl) propoxy)‐3a,4,7,7a‐tetrahydro‐1 H‐4,7‐methanoisoindole‐1,3(2 H)‐dione], for which the values for the Ki on 5‐HT1A receptor [1] (setting [8]), on 5‐HT2C receptor (setting [4]) and at 5‐HT2A receptor (setting [5]) were 54 nM, 80800 nM and 2860 nM, respectively. Also, the EC50 on 5‐HT1A receptor [2] (setting [6]) came to 3.01 µM. Also, the Emax at 5‐HT1A receptor [2] (rat hippocampal membranes) worked out at 177 ± 3.3%. The “agonist activity for the 5‐HT1A receptor” value on 5‐HT1A receptor [2] is on record as “full agonists”.

On to `O=C(NCCCN1CCN(c2cccc(C3=NCCS3)c2)CC1)c1ccccn1` [FG‐2, N‐(3‐(4‐(3‐(4,5‐dihydrothiazol‐2‐yl) phenyl) piperazin‐1‐yl) propyl) picolinamide], for which the Ki at 5‐HT1A receptor [1] (setting [8]) is 1860 nM; at 5‐HT2C receptor (setting [4]) it was 816 nM; at 5‐HT2C receptor (setting [9]) it was 832 nM; on 5‐HT2A receptor (setting [5]), 2900 nM; at 5‐HT2A receptor (setting [10]), 2950 nM. For the same molecule, the EC50 at 5‐HT1A receptor [2] (setting [6]) is 125 µM. Further, the Emax at 5‐HT1A receptor [2] (rat hippocampal membranes) came out at 136 ± 10.2%.

Take `O=C(NCCCN1CCN(c2ccccc2C2=NCCS2)CC1)c1ccncc1` [FG‐4, N‐(3‐(4‐(2‐(4,5‐dihydrothiazol‐2‐yl) phenyl) piperazin‐1‐yl) propyl) isonicotinamide]: the figures for the Ki at 5‐HT1A receptor [1] (setting [8]), on 5‐HT2C receptor (setting [4]) and at 5‐HT2A receptor (setting [5]) were 1540 nM, 7280 nM and 4700 nM, respectively. The Emax on 5‐HT1A receptor [2] (rat hippocampal membranes) was 132 ± 14.9%. At 5‐HT1A receptor [2] (setting [7]), the EC50 was 50.1 µM.

Consider `O=C(NCCCN1CCN(c2ccc(C3=NCCS3)cc2)CC1)c1ccncc1` [FG‐6, N‐(3‐(4‐(4‐(4,5‐dihydrothiazol‐2‐yl) phenyl) piperazin‐1‐yl) propyl) isonicotinamide], for which the Ki at 5‐HT1A receptor [1] (setting [3]) is 26300 nM; at 5‐HT2C receptor (setting [4]) it was 2210 nM; at 5‐HT2C receptor (setting [9]) it was 2240 nM; on 5‐HT2A receptor (setting [5]), 4600 nM. For the same molecule, at 5‐HT1A receptor [2] (setting [6]), the EC50 was 9.4 µM. Further, the Emax on 5‐HT1A receptor [2] (rat hippocampal membranes) was found to be 184 ± 11%. Also, the “agonist activity for the 5‐HT1A receptor” value at 5‐HT1A receptor [2] is given as “full agonists”.

Turning to `O=C(NCCCN1CCN(c2ccccc2C2=NCCS2)CC1)c1ccccn1` [FG‐1, N‐(3‐(4‐(2‐(4,5‐dihydrothiazol‐2‐yl) phenyl) piperazin‐1‐yl) propyl) picolinamide], the results for the Ki on 5‐HT1A receptor [1] (setting [8]), on 5‐HT2C receptor (setting [4]) and on 5‐HT2A receptor (setting [5]) were 2350 nM, 6860 nM and 3130 nM, respectively. Also, the results for the EC50 at 5‐HT1A receptor [2] (setting [6]) and at 5‐HT1A receptor [2] (setting [7]) were 16.5 µM and 20 µM, respectively. In addition, the Emax at 5‐HT1A receptor [2] (rat hippocampal membranes) amounted to 138 ± 11.5%.
